Tested on: Myo5 SH3 domain
Experiment: SPOT analysis of cellulose-bound peptides (WISE), Myo5 SH3 domain (Dataset S4)
Format: binding, Saccharomyces cerevisiae
Conditions: for The normalized value in BLU units: Myo5 SH3 domain
[1] = SPOT analysis of cellulose-bound peptides probed with Myo5 SH3 domain, normalized value
[2] = SPOT analysis of cellulose-bound 14-mer yeast proteome peptides, normalized value, mean where the peptide was synthesized more than once
[3] = SPOT analysis of membrane-bound peptides, normalized value (see methods)
[4] = SPOT analysis of membrane-synthesized peptides probed with Myo5 SH3 domain, normalized value

Sequence: LAKDLIVPRRPEWN
- The normalized value in BLU units (SPOT analysis, Myo5 SH3) [1]: 117125.4 BLU

Sequence: AFHFWRPPIAPAEM
- The normalized value in BLU units (SPOT analysis, Myo5 SH3) [1]: 1961.3 BLU

Sequence: FFFFHLSPSIPFWF
- The normalized value in BLU units [2]: 6490.2 BLU

Sequence: INNTRLSPNSPTPP
- The normalized value in BLU units [2]: 139.6 BLU

Sequence: DARPFLKPVDPIAL
- The normalized value in BLU units (SPOT analysis, Myo5 SH3) [1]: 126.2 BLU

Sequence: DFIGRKSPDLPEYL
- The normalized value in BLU units [3]: 138.7 BLU

Sequence: KPSVMKLPPSPKQP
- The normalized value in BLU units (SPOT analysis, Myo5 SH3) [1]: 380.5 BLU

Sequence: ALGIFFAPESPWWL
- The normalized value in BLU units [2]: 229.3 BLU

Sequence: PYMYKYLPRFPNLK
- The normalized value in BLU units [2]: 382.1 BLU

Sequence: HPYMMVYPMSPPPP
- The normalized value in BLU units (SPOT analysis, Myo5 SH3) [1]: 562.8 BLU

Sequence: ILIFLWIPDDPSKA
- The normalized value in BLU units (SPOT analysis, Myo5 SH3) [1]: 1371.6 BLU

Sequence: QFQKLVPPTLPENV
- The normalized value in BLU units [2]: 153.9 BLU

Sequence: GPSQFAPPPPPPGV
- The normalized value in BLU units [2]: 20435.9 BLU

Sequence: SPFTFLFPFLPTII
- The normalized value in BLU units (SPOT analysis, Myo5 SH3) [1]: 366.0 BLU

Sequence: RSRSKKDPGIPSNF
- The normalized value in BLU units (SPOT analysis, Myo5 SH3) [4]: 800.0 BLU

Sequence: DLMALKYPYFPTKM
- The normalized value in BLU units (SPOT analysis, Myo5 SH3) [1]: 139.1 BLU

Sequence: AADWYEVPKVPLSA
- The normalized value in BLU units [2]: 275.4 BLU

Sequence: IAGQRTFPEDPNYP
- The normalized value in BLU units (SPOT analysis, Myo5 SH3) [4]: 171.7 BLU

Sequence: KYIIKTEPESPEED
- The normalized value in BLU units [2]: 245.5 BLU

Sequence: GDHPKGPPPPPPPP
- The normalized value in BLU units (SPOT analysis, Myo5 SH3) [4]: 20184.2 BLU

Sequence: CFKTKFAPEAPDLF
- The normalized value in BLU units [3]: 209.0 BLU

Sequence: TARNKKSPGGPRQR
- The normalized value in BLU units (SPOT analysis, Myo5 SH3) [4]: 593.2 BLU

Sequence: KIVERGPPYPPDLR
- The normalized value in BLU units [3]: 137.7 BLU

Sequence: QPQHLPPPPPPRAQ
- The normalized value in BLU units [2]: 76158.3 BLU

Sequence: LSYLKDLPFVPFLF
- The normalized value in BLU units [3]: 213.0 BLU

Sequence: WLDEKRIPSTPIDY
- The normalized value in BLU units (SPOT analysis, Myo5 SH3) [4]: 163.3 BLU

Sequence: KHEPKKSPTTPALA
- The normalized value in BLU units (SPOT analysis, Myo5 SH3) [4]: 726.2 BLU

Sequence: AEFDLTDPEVPSFY
- The normalized value in BLU units [2]: 165.8 BLU

Sequence: ILQILFEPMPPFNS
- The normalized value in BLU units [2]: 200.5 BLU

Sequence: FFTIWFIPLVPVFW
- The normalized value in BLU units (SPOT analysis, Myo5 SH3) [1]: 396.7 BLU

Sequence: MYDRKVIPRMPWHD
- The normalized value in BLU units (SPOT analysis, Myo5 SH3) [4]: 357.4 BLU

Sequence: PPPPRRGPAPPPPP
- The normalized value in BLU units [3]: 15026.4 BLU

Sequence: FGTAKILPEEPSNT
- The normalized value in BLU units (SPOT analysis, Myo5 SH3) [4]: 153.4 BLU

Sequence: HKFVKSSPVVPFDD
- The normalized value in BLU units (SPOT analysis, Myo5 SH3) [4]: 150.9 BLU

Sequence: RKSDKNAPSVPQVD
- The normalized value in BLU units [3]: 394.6 BLU

Sequence: LIWHKSKPVKPTNK
- The normalized value in BLU units [3]: 353.6 BLU

Sequence: ILVAYGLPVSPDEK
- The normalized value in BLU units (SPOT analysis, Myo5 SH3) [1]: 166.6 BLU

Sequence: AVQLKRQPAQPRES
- The normalized value in BLU units (SPOT analysis, Myo5 SH3) [4]: 237.9 BLU

Sequence: IAGMLMVPESPRFL
- The normalized value in BLU units [2]: 255.1 BLU

Sequence: NKIPKHLPADPIFS
- The normalized value in BLU units [2]: 277.9 BLU

Sequence: KVSSKYDPDNPNKD
- The normalized value in BLU units [3]: 434.5 BLU

Sequence: TGKFRYMPFSPAGT
- The normalized value in BLU units (SPOT analysis, Myo5 SH3) [4]: 555.5 BLU

Sequence: LPAPPPPPRRGPA
- The normalized value in BLU units (SPOT analysis, Myo5 SH3) [1]: 43350 BLU

Sequence: VLSKFIKPKNPSLV
- The normalized value in BLU units (SPOT analysis, Myo5 SH3) [1]: 319.5 BLU

Sequence: FEKRYYVPEDPSQD
- The normalized value in BLU units [2]: 120.8 BLU

Sequence: KEQNWKHPLLPLLK
- The normalized value in BLU units (SPOT analysis, Myo5 SH3) [1]: 321.0 BLU

Sequence: TLKKKKTPKKPIAA
- The normalized value in BLU units (SPOT analysis, Myo5 SH3) [4]: 535.4 BLU

Sequence: FEDHHITPCKPGGQ
- The normalized value in BLU units [2]: 67.9 BLU

Sequence: SLTLKTLPRVPTDS
- The normalized value in BLU units (SPOT analysis, Myo5 SH3) [4]: 211.7 BLU

Sequence: PVRCRVLPATPRQI
- The normalized value in BLU units (SPOT analysis, Myo5 SH3) [4]: 1474.0 BLU

Sequence: FVSPRRAPKPPSYP
- The normalized value in BLU units [3]: 1581.6 BLU

Sequence: RLLSKYRPSCPIIL
- The normalized value in BLU units (SPOT analysis, Myo5 SH3) [4]: 336.6 BLU

Sequence: NGTWKYNPTVPNEL
- The normalized value in BLU units [3]: 172.6 BLU

Sequence: SFDYLFHPFVPCTI
- The normalized value in BLU units (SPOT analysis, Myo5 SH3) [1]: 23.1 BLU

Sequence: GIKVKRIPYSPKSI
- The normalized value in BLU units [3]: 390.6 BLU

Sequence: PELAKNSPLAPIKK
- The normalized value in BLU units [3]: 125.2 BLU

Sequence: MDGIKELPEFPIKK
- The normalized value in BLU units [3]: 138.4 BLU

Sequence: LAPKREAPKPPANT
- The normalized value in BLU units [3]: 116079.9 BLU

Sequence: TGKPRKTPRPPFPF
- The normalized value in BLU units [2]: 1192.8 BLU

Sequence: PLFGLSIPKTPTLK
- The normalized value in BLU units (SPOT analysis, Myo5 SH3) [1]: 121.7 BLU

Sequence: LTSVKIVPQRPISD
- The normalized value in BLU units [2]: 89.0 BLU

Sequence: AAVRLDQPILPQND
- The normalized value in BLU units (SPOT analysis, Myo5 SH3) [1]: 105.1 BLU

Sequence: LDLSKYGPLPPSRA
- The normalized value in BLU units (SPOT analysis, Myo5 SH3) [4]: 154.0 BLU

Sequence: TSCTKEKPTPPTTT
- The normalized value in BLU units [2]: 118.4 BLU

Sequence: ELRTLFVPLIPSVT
- The normalized value in BLU units [2]: 293.5 BLU

Sequence: LNQSKGQPFQPSPT
- The normalized value in BLU units (SPOT analysis, Myo5 SH3) [4]: 254.7 BLU

Sequence: NASLLRDPSAPYAH
- The normalized value in BLU units (SPOT analysis, Myo5 SH3) [1]: 133.8 BLU

Sequence: RFHVFCEPILPSVA
- The normalized value in BLU units [2]: 158.0 BLU

Sequence: DIPLKQVPENPMPT
- The normalized value in BLU units [3]: 62.9 BLU

Sequence: WLLPYSLPMHPGRW
- The normalized value in BLU units (SPOT analysis, Myo5 SH3) [1]: 706.0 BLU

Sequence: YLLELPDPLIPNDV
- The normalized value in BLU units (SPOT analysis, Myo5 SH3) [1]: 162.7 BLU

— article PMC314469, “Protein Interaction Networks by Proteome Peptide Scanning” (PLoS Biology, 2004)
